The source made the active and inactive calls. The calls are words filed in the database; no cut-off is given here.

Data set [1] in a line: Cytotoxicity against human MCF7 cells assessed as cell survival at 10 uM after 48 hrs by MTT assay relative to control. In kind it is cell-based. As to conditions: read-out: Survival. Background: Formazan colour is commonly taken as a measure of viable cells.
Data set [2] is filed under the species Homo sapiens. Briefly: Inhibition of P-gp in human MCF7/ADR cells assessed as potentiation of doxorubicin-induced cytotoxicity at 1 uM preincubated with cells followed by compound washout and subsequent incubation for 6 hrs prior to addition of doxorubicin and measured after 48 hrs by MTT assay relative to control. Type of data set: cell-based.
Data set [3] deals with NCI/ADR-RES. Briefly: Inhibition of P-gp expression in human MCF7/ADR cells at 5 to 10 uM after 48 hrs by Western blot analysis. Type of data set: functional, cell-based. A general note: A western blot detects proteins with antibodies after separation by electrophoresis.
Data set [4] in a line: Competitive inhibition of P-gp in human MCF7/ADR cells after 150 mins in presence of doxorubicin by Dixon plot analysis. Type of data set: cell-based.
The species entered for data set [5] is Homo sapiens. Briefly: Stimulation of human Pgp ATPase activity expressed in cell membranes at 50 uM after 1 hr by P-gp Glo assay relative to control.
The species entered for data set [6] is Homo sapiens. Briefly: Inhibition of P-gp in human MCF7/ADR cells assessed as concentration required to restore doxorubicin accumulation in cells after 150 mins by fluorescence assay relative to MCF7 cells. Type of data set: cell-based.
A short description of data set [7]: Competitive inhibition of P-gp in human MCF7/ADR cells after 150 mins in presence of doxorubicin by Lineweaver-Burk plot analysis. Type of data set: cell-based.
The next data set relates to HEK293. Briefly: Cytotoxicity against HEK293 cells after 48 hrs by MTT assay. In kind it is cell-based. As to conditions: Homo sapiens, HEK293, 48 h.
Data set [8] is filed under the species Homo sapiens. The data set can be described thus: Inhibition of P-gp mediated efflux in human MCF7/ADR cells after 4 hrs by Rh123 dye-based flow cytometric method. Type of data set: cell-based. Background: Flow cytometry measures light scatter and fluorescence of single cells or particles in a stream.
The species entered for data set [9] is Homo sapiens. Briefly: Inhibition of P-gp in human MCF7/ADR cells assessed as potentiation of docetaxel-induced cytotoxicity at 10 uM after 48 hrs by MTT assay relative to control. Type of data set: cell-based.
In data set [10] the test system is NCI/ADR-RES. The data set can be described thus: Cytotoxicity against human MCF7/ADR cells after 48 hrs by MTT assay. In kind it is cell-based.
Data set [11] is described as follows: Cytotoxicity against human MCF7/ADR cells assessed as cell survival at 10 uM after 48 hrs by MTT assay relative to control. Type of data set: cell-based. Conditions: MCF7/ADR cells (NCI/ADR-RES), read-out: Survival.
For data set [12], the species on record is Homo sapiens. Briefly: Stimulation of human Pgp ATPase activity expressed in cell membranes at 2.5 uM after 1 hr by P-gp Glo assay relative to control.
The species entered for data set [13] is Homo sapiens. Briefly: Inhibition of P-gp in human MCF7/ADR cells assessed as potentiation of vincristine-induced cytotoxicity at 10 uM after 48 hrs by MTT assay relative to control. Type of data set: cell-based.
For another data set, the system named is P-gp. Briefly: Therapeutic index, ratio of IC50 for HEK293 cells to EC50 for inhibition of P-gp in human MCF7/ADR cells assessed as potentiation of doxorubicin-induced cytotoxicity. In kind it is toxicity, cell-based. Conditions: HEK293 cells (IC50) and MCF7/ADR cells (EC50).
The nature of data set [14]: Inhibition of P-gp in human MCF7/ADR cells assessed as potentiation of doxorubicin-induced cytotoxicity after 48 hrs by MTT assay. Type of data set: cell-based. As to conditions: NCI/ADR-RES.
For data set [15], the species on record is Homo sapiens. The data set can be described thus: Inhibition of P-gp in human MCF7/ADR cells assessed as potentiation of doxorubicin-induced cytotoxicity at 10 uM after 48 hrs by MTT assay relative to control. In kind it is cell-based.
For the next data set, the system named is MCF7. Briefly: Cytotoxicity against human MCF7 cells after 48 hrs by MTT assay. In kind it is cell-based. As to conditions: MCF7, 48 h.
The species named for data set [16] is Homo sapiens. Briefly: Inhibition of P-gp in human MCF7/ADR cells assessed as increase in doxorubicin accumulation in cells up to 20 uM after 150 mins by fluorescence assay relative to control. In kind it is cell-based.
For data set [17], the species on record is Homo sapiens. The data set can be described thus: Inhibition of P-gp in human MCF7/ADR cells assessed as increase in doxorubicin accumulation in cells after 150 mins by fluorescence assay. In kind it is cell-based.

For the molecule `C=C1[C@H](OC(=O)C(C)C)[C@@H](OC(C)=O)[C@@H](OC(C)=O)C(C)(C)/C=C/[C@H](C)[C@H](OC(=O)c2ccccc2)[C@@]2(O)C[C@@](C)(OC(C)=O)[C@H](OC(C)=O)[C@@H]2[C@H]1OC(=O)C(C)CC` (some centres not stated), the viability at 48 h, 10 µM in data set [1] came to 91.4%; in [11] it was 91.8%. Further, the fold change (FC) was determined as 1.43 in the data set filed under Homo sapiens [2]; 2.22 in the data set filed under Homo sapiens [5]; 3.42 in the data set listed under Homo sapiens [9]; 1.34 in the data set listed under Homo sapiens [12]; 2.17 in the data set filed under Homo sapiens [13]; 36.8 in the data set listed under Homo sapiens [15]. Further, in the data set listed under Homo sapiens [16], the fold change (FC) amounted to 2.15. Moreover, the inhibition entry in the data set on NCI/ADR-RES [3] was “inactive”. The Ki (as a rule, a measure of affinity in units of concentration, obtained from inhibition or displacement) in data set [4] was found to be 500 nM; in data set [7], 490 nM. For the same molecule, the Activity in the data set filed under Homo sapiens [6] stood at 10 µM. In addition, the values for the IC50 with HEK293, in the data set on NCI/ADR-RES [10] and in the data set with MCF7 were 98200 nM, over 100000 nM and over 100000 nM, respectively. The inhibition result in the data set listed under Homo sapiens [8] and in the data set listed under Homo sapiens [17] was “Dose-dependent effect” in each case. In addition, the selectivity ratio with P-gp is 1060. Besides, the EC50 (as a rule, the concentration at which the effect is half-maximal) in data set [14] was 92.7 nM.

As to `COc1ccc(CCN(C)CCCC(C#N)(c2ccc(OC)c(OC)c2)C(C)C)cc1OC` (configuration not stated), the viability at 48 h, 10 µM in data set [1] worked out at 83.4%; in [11] it was 90.2%. The results for the Ki in [4] and in data set [7] were 2920 nM and 2880 nM, respectively. In addition, the Activity in the data set filed under Homo sapiens [6] came out at 40 µM. Moreover, the IC50 (in general, the concentration that inhibits the measured activity by half) with MCF7 is 48900 nM. Besides, the inhibition entry in the data set filed under Homo sapiens [17] is “Dose-dependent effect”.

(Values after ChEMBL document CHEMBL4145504, “Jatrophane diterpenoids from Euphorbia sororia as potent modulators against P-glycoprotein-based multidrug resistance” (Eur J Med Chem, 2018).)
